Measurements: patent publication US20200163984A1, “USE OF ISOVALERYL SPIRAMYCIN I, II AND/OR III IN MANUFACTURING MEDICAMENT FOR TREATING AND/OR PREVENTING TUMOR, AND MEDICAMENT” (SHENYANG FUYANG PHARMACEUTICAL TECHNOLOGY CO., LTD., priority 2017, published 2020)

Legend:
[1] = Spleen index of A549 lung cancer tumor-bearing mice; conditions: n = 6
[2] = system: transplanted tumor of human cervical cancer cell HeLa; assay: HeLa transplanted tumor in nude mice; conditions: for Tumor Volume (mm3) (d 1): d1
Description: HeLa cells in a logarithmic growth phase were taken and subjected to a trypan blue exclusion experiment showing that the cell viability was more than 95%, then the cells were subjected to trypsinization, centrifugation, and supernatant removal. Then cell concentration was adjusted to 1×10^7/ml with matrigel, then each nude mouse was inoculated subcutaneously with 0.2 ml of cells at its right armpit and recorded as the first day of inoculation. When the tumor grows to be greater than or equal to 100 mm^3, the mice were randomly divided into 11 groups with 6 mice in each group: a model group, a cyclophosphamide group, isovaleryl spiramycin I groups with doses of 25, 50 and 100 mg/kg, isovaleryl spiramycin II groups with doses of 25, 50 and 100 mg/kg, and isovaleryl spiramycin III groups with doses of 25, 50 and 100 mg/kg. Each group was continuously administered intragastrically for 30 days with a dose of 20 ml/kg. The mice were sacrificed the next day after drug withdrawal and the indicators were tested. The long diameter and short diameter of the tumor, and the body weight of each mouse were recorded every 3 days from drug administration to nude mouse sacrifice.
The body weight of the nude mice and the long diameter (a) and short diameter (b) of the transplanted tumor were measured every 3 days, and the tumor volume (v), relative tumor volume (RTV) and relative tumor proliferation rate (T/C) are calculated respectively according to the following formulas, wherein V=a×b^2/2; RTV=V/V0 (V0 is the tumor volume before administration, V is the tumor volume before sacrifice), and T/C (%)=treatment group RTV/model control group RTV×100%.
Each mouse was weighed and sacrificed. After the tumor was completely stripped off from the body of the mouse, the non-tumor tissues such as blood stains and fat were removed to weigh the tumor and calculate the tumor growth inhibition rate. The average tumor weight of each group of mice is used as an indicator of efficacy. Tumor growth inhibition rate (%)=(1−the average tumor weight of the treatment group/the average tumor weight of the model group)×100%.

[3] = system: transplanted tumor of mouse H22 liver cancer; assay: Transplanted tumor of mouse H22 liver cancer; conditions: for Tumor Volume (mm3) (d30): d 30; for Body Weight (g) (d1) / Body Weight (g) (d 7): mouse, in vivo
Description: The H22 cell strains cryopreserved in liquid nitrogen were resuscitated in Kunming mice. After 3 generations, the ascites of Kunming mice were taken and placed in a 50 ml centrifuge tube in which 10 ml of 0.9% normal saline was added, and then centrifuging was performed at 1000 rpm for 5 min at room temperature, and the obtained supernatant was removed. Then 10 ml of 0.9% normal saline was added to the tube to blow and mix well, and then the mixture was diluted to 5×10^6 live cells/ml with normal saline after counting. The tube was stored in ice water, and 75% ethanol was used to disinfect the skin under the right armpits of the mice. Each Kunming mouse was soon inoculated subcutaneously with 0.2 ml of the cells at the armpit of the right forelimb.
In the H22 liver cancer model, the mice inoculated with the tumor were randomly divided into groups with 10 mice in each group on the next day of inoculation. The groups included: a model control group, a positive drug cyclophosphamide control group (CTX, 26 mg/kg), isovaleryl spiramycin I groups with doses of 13, 26 and 52 mg/kg; isovaleryl spiramycin II groups with doses of 13, 26 and 52 mg/kg; isovaleryl spiramycin III groups with doses of 13, 26 and 52 mg/kg. Each group was continuously administered intragastrically for 7 days with a dose of 20 ml/kg.
The tumor-bearing mice were weighed and sacrificed the next day after the last administration. The subcutaneous tumors were dissected and weighed. The average tumor weight of each group is calculated, and the tumor inhibition rate is calculated.
Tumor inhibition rate=(1−T/C)×100%
T: average tumor weight of the drug-administered group; C: average tumor weight of the blank control group.

[4] = HeLa, high dose (100 mg/kg in method) i.g. 30 days
[5] = HeLa, low dose (25 mg/kg in method) i.g. 30 days
[6] = HeLa, medium dose (50 mg/kg in method) i.g. 30 days

SMILES: CO[C@@H]1[C@@H](O[C@@H]2O[C@H](C)[C@@H](O[C@H]3C[C@@](C)(O)[C@@H](OC(=O)CC(C)C)[C@H](C)O3)[C@H](N(C)C)[C@H]2O)[C@@H](CC=O)C[C@@H](C)[C@@H](O[C@H]2CC[C@H](N(C)C)[C@@H](C)O2)/C=C/C=C/C[C@@H](C)OC(=O)C[C@H]1O [Isovaleryl spiramycin I, isovaleryl spiramycin I]
- Spleen Index (%) ([1]; dose 13 mg/kg): 0.32 ± 0.12%
- Spleen Index (%) ([1]; dose 26 mg/kg): 0.38 ± 0.09%
- Spleen Index (%) ([1]; dose 52 mg/kg): 0.31 ± 0.08%
- Inhibition Rate (%) ([2]; HeLa nude mice, 12.5 mg/kg): 46.69%
- Relative Tumor Proliferation Rate (T/C) ([2]; HeLa nude mice, 12.5 mg/kg): 69.18%
- Relative Tumor Volume (RTV) ([2]; HeLa nude mice, 12.5 mg/kg): 11.47 ± 4.97
- Tumor Weight ([2]; HeLa nude mice, 12.5 mg/kg): 1.03 ± 0.59 g
- Tumor Volume (mm3) (d 1) ([2]; HeLa nude mice, 12.5 mg/kg): 112.43 ± 6.87 mm3
- Tumor Volume (mm3) (d30) ([2]; HeLa nude mice, 12.5 mg/kg): 1287.77 ± 552.57 mm3
- Inhibition Rate (%) ([2]; HeLa nude mice, 25 mg/kg): 51.57%
- Relative Tumor Proliferation Rate (T/C) ([2]; HeLa nude mice, 25 mg/kg): 39.57%
- Relative Tumor Volume (RTV) ([2]; HeLa nude mice, 25 mg/kg): 6.56 ± 0.55
- Tumor Weight ([2]; HeLa nude mice, 25 mg/kg): 0.94 ± 0.48 g
- Tumor Volume (mm3) (d 1) ([2]; HeLa nude mice, 25 mg/kg): 112.78 ± 9.72 mm3
- Tumor Volume (mm3) (d30) ([2]; HeLa nude mice, 25 mg/kg): 738.39 ± 75.32 mm3
- Inhibition Rate (%) ([2]; HeLa nude mice, 50 mg/kg): 65.55%
- Relative Tumor Proliferation Rate (T/C) ([2]; HeLa nude mice, 50 mg/kg): 30.91%
- Relative Tumor Volume (RTV) ([2]; HeLa nude mice, 50 mg/kg): 5.13 ± 0.68
- Tumor Weight ([2]; HeLa nude mice, 50 mg/kg): 0.67 ± 0.09 g
- Tumor Volume (mm3) (d 1) ([2]; HeLa nude mice, 50 mg/kg): 114.15 ± 6.08 mm3
- Tumor Volume (mm3) (d30) ([2]; HeLa nude mice, 50 mg/kg): 588.18 ± 73.34 mm3
- Relative Tumor Proliferation Rate (T/C) [2, 4]: 30.91%
- tumor growth inhibition rate [2, 4]: 65.55%
- Relative Tumor Proliferation Rate (T/C) [2, 5]: 69.18%
- tumor growth inhibition rate [2, 5]: 46.69%
- tumor volume and relative tumor volume compared with the model group ([2]; HeLa, low, medium and high doses, P<0.05): significantly lower
- Relative Tumor Proliferation Rate (T/C) [2, 6]: 39.57%
- tumor growth inhibition rate [2, 6]: 51.57%
- mouse weight compared with the model group ([2]; mouse, in vivo): no significant changes
- Body Weight (g) (d1) ([2]; mouse, in vivo, 12.5 mg/kg): 20.72 ± 0.49 g
- Body Weight (g) (d30) ([2]; mouse, in vivo, 12.5 mg/kg): 21.10 ± 0.68 g
- Body Weight (g) (d1) ([2]; mouse, in vivo, 25 mg/kg): 21.07 ± 0.44 g
- Body Weight (g) (d30) ([2]; mouse, in vivo, 25 mg/kg): 21.23 ± 0.73 g
- Body Weight (g) (d1) ([2]; mouse, in vivo, 50 mg/kg): 20.82 ± 0.72 g
- Body Weight (g) (d30) ([2]; mouse, in vivo, 50 mg/kg): 20.95 ± 0.45 g
- growth of H22 liver cancer in mice ([3]; 13, 26 and 52 mg/kg i.g. 7 days): significantly inhibit
- Relative Tumor Proliferation Rate (T/C) ([3]; dose 12.5 mg/kg): 54.47
- Relative Tumor Volume (RTV) ([3]; dose 12.5 mg/kg): 5.41 ± 1.42
- Tumor Volume (mm3) (d 1) ([3]; dose 12.5 mg/kg): 120.26 ± 24.42 mm3
- Tumor Volume (mm3) (d30) ([3]; dose 12.5 mg/kg): 657.57 ± 231.56 mm3
- Inhibition Rate (%) ([3]; dose 13 mg/kg): 42.11%
- Tumor ([3]; dose 13 mg/kg): 0.88 ± 0.38 g
- Relative Tumor Proliferation Rate (T/C) ([3]; dose 25 mg/kg): 48.27
- Relative Tumor Volume (RTV) ([3]; dose 25 mg/kg): 4.79 ± 0.64
- Tumor Volume (mm3) (d 1) ([3]; dose 25 mg/kg): 118.32 ± 11.90 mm3
- Tumor Volume (mm3) (d30) ([3]; dose 25 mg/kg): 563.69 ± 463.08 mm3
- Inhibition Rate (%) ([3]; dose 26 mg/kg): 55.26%
- Tumor ([3]; dose 26 mg/kg): 0.68 ± 0.24 g
- Relative Tumor Proliferation Rate (T/C) ([3]; dose 50 mg/kg): 29.78
- Relative Tumor Volume (RTV) ([3]; dose 50 mg/kg): 2.96 ± 0.39
- Tumor Volume (mm3) (d 1) ([3]; dose 50 mg/kg): 120.68 ± 13.76 mm3
- Tumor Volume (mm3) (d30) ([3]; dose 50 mg/kg): 359.74 ± 480.81 mm3
- Inhibition Rate (%) ([3]; dose 52 mg/kg): 65.79%
- Tumor ([3]; dose 52 mg/kg): 0.52 ± 0.68 g
- Body Weight (g) (d1) ([3]; 13 mg/kg): 24.55 ± 1.00 g
- Body Weight (g) (d 7) ([3]; 13 mg/kg): 26.23 ± 0.79 g
- Body Weight (g) (d1) ([3]; 26 mg/kg): 23.83 ± 2.36 g
- Body Weight (g) (d 7) ([3]; 26 mg/kg): 26.68 ± 1.85 g
- Body Weight (g) (d1) ([3]; 52 mg/kg): 24.02 ± 2.83 g
- Body Weight (g) (d 7) ([3]; 52 mg/kg): 27.87 ± 1.57 g
